Reference: patent US9518977B2, “Microfluidic assay apparatus and methods of use” (University of Washington through its Center for …, priority 2012, dated 2016)
Entries after “also recorded” stand apart in the source; their conditions may differ.

System: GFP-labelled glioma cells in human GBM mouse xenograft slice
Test: Drug testing on human GBM xenograft slices in microfluidic apparatus
Assay type: cell-based
Details: 1 mM TMZ in culture medium, 48 hours selective exposure, 400 μm-thick slice, epifluorescence and confocal imaging
Description: Two hundred thousand (200,000) viable glioma cells labelled by lentiviral GFP expression were orthotopically injected in the brain of an immunodeficient mouse following proper protocols. After approximately four weeks of tumor growth, the mouse was sacrificed and the mouse brain was then transported in ice cold culture medium prior to slicing. A vibratome tissue slicer was used to produce 400 μm-thick slices from a GBM xenograft mouse brain (the tissue was submerged in oxygenated ACSF during the slicing process). Then the slices were quickly transferred onto the PTFE membrane well inserts with pre-warmed culture medium and placed in an incubator. These slices were cultured for at least 24 hours (recovery) before being used for drug testing.
To proceed with drug testing, the GBM slice was transferred from the culture membrane well insert to the microfluidic apparatus by cutting the PTFE membrane out from the well insert and then placing it onto the plurality of open microchannels of the apparatus. […] Then the wells corresponding to the determined drug delivery channels were replaced with drug solution (1 mM of TMZ in culture medium; TMZ was chosen due to its clinical relevance to GBM), and then the apparatus was connected to a syringe pump with the total flow rate of 300 μL per hour in an incubator to initiate the drug delivery. […]

Cn1nnc2c(C(N)=O)ncn2c1=O [TMZ] was tested, and the “cell death (loss of GFP-labelled glioma cells) at drug exposure regions” value was “selectivity of cell death in the TMZ region; also recorded: loss of GFP-labelled glioma cells”.
